Reference: paper PMC10986521 (Microbiology Spectrum, 2024)

biological target: T1, FMDV 3Cpro (Foot-and-mouth disease virus A, UniProt A0A097I315); experiment: biochemical; parameters: species or system FMDV A/IND287/96 strain (serotype A); details: FRET assay (IC50)

Row | Structure (SMILES) | IC50
1 | CC(C)C[C@H](NC(=O)OC[C@@H]1C[C@H]1c1cccc(Cl)c1)C(=O)N[C@@H](C[C@H]1CCNC1=O)C(O)S(=O)(=O)O (stereo partly drawn) [Compound C6d] | 0.58 ± 0.11 µM
2 | CC(C)C[C@H](NC(=O)OC[C@@H]1C[C@H]1c1ccc(F)cc1)C(=O)N[C@H](C=O)C[C@H]1CCNC1=O [Compound C7c] | 0.59 ± 0.04 µM
3 | CC(C)C[C@H](NC(=O)OC[C@@H]1C[C@H]1c1ccc(F)cc1)C(=O)N[C@@H](C[C@H]1CCNC1=O)C(O)S(=O)(=O)O (stereo partly drawn) [Compound C7d] | 0.75 ± 0.07 µM
4 | COc1cccc([C@@H]2C[C@H]2COC(=O)N[C@@H](CC(C)C)C(=O)N[C@H](C=O)C[C@H]2CCNC2=O)c1 [Compound C9c] | 0.75 ± 0.14 µM
5 | COc1cccc([C@@H]2C[C@H]2COC(=O)N[C@@H](CC(C)C)C(=O)N[C@@H](C[C@H]2CCNC2=O)C(O)S(=O)(=O)O)c1 (stereo partly drawn) [Compound C9d] | 0.84 ± 0.06 µM
6 | COc1ccc([C@@H]2C[C@H]2COC(=O)N[C@@H](CC(C)C)C(=O)N[C@H](C=O)C[C@H]2CCNC2=O)cc1 [Compound C10c] | 1.25 ± 0.07 µM
7 | COc1ccc([C@@H]2C[C@H]2COC(=O)N[C@@H](CC(C)C)C(=O)N[C@@H](C[C@H]2CCNC2=O)C(O)S(=O)(=O)O)cc1 (stereo partly drawn) [Compound C10d] | 1.05 ± 0.21 µM
8 | COc1ccccc1[C@@H]1C[C@H]1COC(=O)N[C@@H](CC(C)C)C(=O)N[C@H](C=O)C[C@H]1CCNC1=O [Compound C11c] | 0.95 ± 0.21 µM
9 | COc1ccccc1[C@@H]1C[C@H]1COC(=O)N[C@@H](CC(C)C)C(=O)N[C@@H](C[C@H]1CCNC1=O)C(O)S(=O)(=O)O (stereo partly drawn) [Compound C11d] | 0.45 ± 0.13 µM
10 | COc1ccccc1[C@@H]1C[C@@H]1COC(=O)N[C@@H](CC(C)C)C(=O)N[C@H](C=O)C[C@H]1CCNC1=O [Compound C12c] | 0.5 ± 0.14 µM
11 | COc1ccccc1[C@@H]1C[C@@H]1COC(=O)N[C@@H](CC(C)C)C(=O)N[C@@H](C[C@H]1CCNC1=O)C(O)S(=O)(=O)O (stereo partly drawn) [Compound C12d] | 0.51 ± 0.06 µM

biological target: T1, FMDV 3Cpro; experiment: cell-based; parameters: species or system FMDV A/IND287/96 strain; details: Cell-based assay (EC50)

Row | Structure (SMILES) | EC50
12 | CC(C)C[C@H](NC(=O)OC[C@@H]1C[C@H]1c1cccc(Cl)c1)C(=O)N[C@@H](C[C@H]1CCNC1=O)C(O)S(=O)(=O)O (stereo partly drawn) [Compound C6d] | 2.85 ± 0.49 µM
13 | CC(C)C[C@H](NC(=O)OC[C@@H]1C[C@H]1c1ccc(F)cc1)C(=O)N[C@H](C=O)C[C@H]1CCNC1=O [Compound C7c] | 2 ± 0.14 µM
14 | CC(C)C[C@H](NC(=O)OC[C@@H]1C[C@H]1c1ccc(F)cc1)C(=O)N[C@@H](C[C@H]1CCNC1=O)C(O)S(=O)(=O)O (stereo partly drawn) [Compound C7d] | 2.15 ± 0.35 µM
15 | COc1cccc([C@@H]2C[C@H]2COC(=O)N[C@@H](CC(C)C)C(=O)N[C@H](C=O)C[C@H]2CCNC2=O)c1 [Compound C9c] | 2.95 ± 0.28 µM
16 | COc1cccc([C@@H]2C[C@H]2COC(=O)N[C@@H](CC(C)C)C(=O)N[C@@H](C[C@H]2CCNC2=O)C(O)S(=O)(=O)O)c1 (stereo partly drawn) [Compound C9d] | 2.05 ± 0.64 µM
17 | COc1ccc([C@@H]2C[C@H]2COC(=O)N[C@@H](CC(C)C)C(=O)N[C@H](C=O)C[C@H]2CCNC2=O)cc1 [Compound C10c] | 3.65 ± 1.48 µM
18 | COc1ccc([C@@H]2C[C@H]2COC(=O)N[C@@H](CC(C)C)C(=O)N[C@@H](C[C@H]2CCNC2=O)C(O)S(=O)(=O)O)cc1 (stereo partly drawn) [Compound C10d] | 2.85 ± 1.55 µM
19 | COc1ccccc1[C@@H]1C[C@H]1COC(=O)N[C@@H](CC(C)C)C(=O)N[C@H](C=O)C[C@H]1CCNC1=O [Compound C11c] | 1.08 ± 0.05 µM
20 | COc1ccccc1[C@@H]1C[C@H]1COC(=O)N[C@@H](CC(C)C)C(=O)N[C@@H](C[C@H]1CCNC1=O)C(O)S(=O)(=O)O (stereo partly drawn) [Compound C11d] | 1.02 ± 0.17 µM
21 | COc1ccccc1[C@@H]1C[C@@H]1COC(=O)N[C@@H](CC(C)C)C(=O)N[C@H](C=O)C[C@H]1CCNC1=O [Compound C12c] | 0.88 ± 0.25 µM
22 | COc1ccccc1[C@@H]1C[C@@H]1COC(=O)N[C@@H](CC(C)C)C(=O)N[C@@H](C[C@H]1CCNC1=O)C(O)S(=O)(=O)O (stereo partly drawn) [Compound C12d] | 1.25 ± 0.07 µM

test system: not listed separately; experiment: in vitro; details: human

Row | Structure (SMILES) | CC50
23 | CC(C)C[C@H](NC(=O)OC[C@@H]1C[C@H]1c1cccc(Cl)c1)C(=O)N[C@@H](C[C@H]1CCNC1=O)C(O)S(=O)(=O)O (stereo partly drawn) [Compound C6d] | > 50 µM
24 | CC(C)C[C@H](NC(=O)OC[C@@H]1C[C@H]1c1ccc(F)cc1)C(=O)N[C@H](C=O)C[C@H]1CCNC1=O [Compound C7c] | > 50 µM
25 | CC(C)C[C@H](NC(=O)OC[C@@H]1C[C@H]1c1ccc(F)cc1)C(=O)N[C@@H](C[C@H]1CCNC1=O)C(O)S(=O)(=O)O (stereo partly drawn) [Compound C7d] | > 50 µM
26 | COc1cccc([C@@H]2C[C@H]2COC(=O)N[C@@H](CC(C)C)C(=O)N[C@H](C=O)C[C@H]2CCNC2=O)c1 [Compound C9c] | > 50 µM
27 | COc1cccc([C@@H]2C[C@H]2COC(=O)N[C@@H](CC(C)C)C(=O)N[C@@H](C[C@H]2CCNC2=O)C(O)S(=O)(=O)O)c1 (stereo partly drawn) [Compound C9d] | > 50 µM
28 | COc1ccc([C@@H]2C[C@H]2COC(=O)N[C@@H](CC(C)C)C(=O)N[C@H](C=O)C[C@H]2CCNC2=O)cc1 [Compound C10c] | > 50 µM
29 | COc1ccc([C@@H]2C[C@H]2COC(=O)N[C@@H](CC(C)C)C(=O)N[C@@H](C[C@H]2CCNC2=O)C(O)S(=O)(=O)O)cc1 (stereo partly drawn) [Compound C10d] | > 50 µM
30 | COc1ccccc1[C@@H]1C[C@H]1COC(=O)N[C@@H](CC(C)C)C(=O)N[C@H](C=O)C[C@H]1CCNC1=O [Compound C11c] | > 50 µM
31 | COc1ccccc1[C@@H]1C[C@H]1COC(=O)N[C@@H](CC(C)C)C(=O)N[C@@H](C[C@H]1CCNC1=O)C(O)S(=O)(=O)O (stereo partly drawn) [Compound C11d] | > 50 µM
32 | COc1ccccc1[C@@H]1C[C@@H]1COC(=O)N[C@@H](CC(C)C)C(=O)N[C@H](C=O)C[C@H]1CCNC1=O [Compound C12c] | > 50 µM
33 | COc1ccccc1[C@@H]1C[C@@H]1COC(=O)N[C@@H](CC(C)C)C(=O)N[C@@H](C[C@H]1CCNC1=O)C(O)S(=O)(=O)O (stereo partly drawn) [Compound C12d] | > 50 µM
